The results in this text go back to ChEMBL document CHEMBL1150889, “Thiomycalolides: new cytotoxic trisoxazole-containing macrolides isolated from a marine sponge Mycale sp” (J Nat Prod, 1998).

Converted amounts (≈) assume the structure as drawn.

The test system of this test is P388. In words: Cytotoxicity against mouse P388 cells. The format is functional, cell-based.

Take `COC(CC1OC(=O)CC(O)CC(SC[C@H](NC(=O)CC[C@H](N)C(=O)O)C(=O)NCC(=O)O)CC(=O)C(C)C(OC)c2coc(n2)-c2coc(n2)-c2coc(n2)/C=C/CC(OC)C1C)C(C)CCC(=O)C(C)C(OC(C)=O)C(C)/C=C/N(C)C=O` (some centres not stated) [THIOMYCALOLIDE A]: 0.018 µg/mL (≈ 0.0148 µM) corresponded to half-maximal inhibition (IC50).

For `COCC(OC)C(=O)OC(CCC(C)C(CC1OC(=O)CC(O)CC(SC[C@H](NC(=O)CC[C@H](N)C(=O)O)C(=O)NCC(=O)O)CC(=O)C(C)C(OC)c2coc(n2)-c2coc(n2)-c2coc(n2)/C=C/CC(OC)C1C)OC)C(C)C(OC(C)=O)C(C)/C=C/N(C)C=O` (some centres not stated) [THIOMYCALOLIDE B], the half-inhibitory concentration (IC50) (as a rule, the point on the concentration scale where inhibition reaches its midpoint) turned out to be 0.018 µg/mL (≈ 0.0135 µM).
